# Tests used:
# Format in all cases: biochemical
# [1] = target: T1, Pfu DNA polymerase (Pyrococcus furiosus, UniProt P61875); assay: Thermostable DNA polymerase primer extension, Pfu; parameters: key: −: No extension within assay time; +/−: up to 25% of primer extended by at least one base within assay time; +: up to 50% of primer extended by at least one base within assay time; ++: up to 75% of primer extended by at least one base within assay time; +++: essentially all primer extended by at least one base within assay time; conditions: DNA template, TTP replaced entirely by test compound, 45° C. for 20–40 minutes
# T1 construct: purchased Stratagene Ltd
# T1 sequence (P61875 1-775): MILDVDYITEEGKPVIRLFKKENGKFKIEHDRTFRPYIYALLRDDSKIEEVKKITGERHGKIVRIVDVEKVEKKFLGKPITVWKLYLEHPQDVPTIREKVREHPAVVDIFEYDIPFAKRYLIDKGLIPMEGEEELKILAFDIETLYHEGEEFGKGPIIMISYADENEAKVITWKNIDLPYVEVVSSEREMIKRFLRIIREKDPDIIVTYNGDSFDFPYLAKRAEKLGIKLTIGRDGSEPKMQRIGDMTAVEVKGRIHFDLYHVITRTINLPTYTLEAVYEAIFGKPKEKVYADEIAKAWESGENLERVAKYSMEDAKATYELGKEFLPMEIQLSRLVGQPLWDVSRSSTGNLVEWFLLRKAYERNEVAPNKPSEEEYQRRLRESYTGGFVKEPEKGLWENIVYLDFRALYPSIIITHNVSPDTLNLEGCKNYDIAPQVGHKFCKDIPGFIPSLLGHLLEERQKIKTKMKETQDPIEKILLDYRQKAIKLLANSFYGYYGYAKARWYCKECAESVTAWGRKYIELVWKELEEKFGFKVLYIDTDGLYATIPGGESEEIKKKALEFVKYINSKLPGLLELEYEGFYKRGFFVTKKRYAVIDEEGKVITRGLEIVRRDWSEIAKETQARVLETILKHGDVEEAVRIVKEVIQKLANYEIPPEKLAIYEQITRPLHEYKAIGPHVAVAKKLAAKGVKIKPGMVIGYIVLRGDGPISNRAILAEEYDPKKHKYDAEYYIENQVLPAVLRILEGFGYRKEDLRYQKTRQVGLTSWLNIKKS
# Method: (§1) DNA polymerase assays were performed using Sequence 1 as primer and Sequence 2 as template. • Sequence 1 5′[Cy3]TAACTCATTAACAGGATC 3′ • Sequence 2 5′AT TCGCGGTATTCTGGTATGAAGCTTTTAGATCCTGTTAATGAGTTA GTA3′
# (§2) The template (Sequence 2) was designed such that the base (underlined) immediately adjacent to the 3′ end of the hybridised primer is complementary to the nucleotide test compound. Nucleotide test compounds were compounds (6) (4′-C-(glycylaminomethyl)thymidine triphosphate), (8) (4′-C-(N-trifluoroacetyaminomethyl)thymidine triphosphate) and (9) (4′-C-(aminomethyl)thymidine triphosphate) as described above.
# (§3) Primer extension reactions were performed using the above primers in the presence of 40 to 80 μM of nucleotide triphosphates. Positive control reactions contained all four native nucleotide triphosphates. For the other reactions the TTP was replaced with either a 2:1 ratio of […] for the terminator control, or entirely by the test compound The enzymes were used at a final concentration of 0.175 units/μl and a magnesium ion concentration of 2.5 mM in buffers supplied by the manufacturer. The primer and template concentrations were 0.5 pmol/μl and 2 pmol/μl respectively.
# Extension reactions with thermophilic enzymes were performed by initially denaturing the fully assembled reactions at 70° C. for 5 min. followed by 45° C. for 20–40 minutes. The following enzymes were used: Taq DNA polymerase (Taq); Thermosequenase (TS); Thermosequenase II (TSII); Thermosequenase E (TSE), Tfl DNA polymerase (Tfl); Tth DNA polymerase (Tth), deltaTts DNA polymerase (deltaTts), deltaTts D DNA polymerase (dettaTTSD) (all from APBiotech); Pfu DNA polymerase (Pfu) (Stratagene Ltd); Vent™ DNA polymerase (Vent) (New England Biolabs).
# The reactions were stopped by adding a 0.5 volume aliquot of 80% formamide containing 0.1% (w/v) bromophenol blue and 0.1% (w/v) cresol blue. […]
# Gels were scanned for Cy3 fluorescence on a Molecular Dynamics Fluorimager and the data analysed using Molecular Dynamics ImageQuant 5 software. […]
# [2] = target: T2, phi-29 DNA polymerase (Bacillus phage phi29, UniProt P03680); assay: Mesophilic DNA polymerase primer extension, phi-29; parameters: key to result of incorporation (termination / further chain extension): T: Incorporation results in termination; E: Incorporation permits further chain extension; T/E: Predominant product is primer extended by one base, but evidence of some further extension also observed; conditions: DNA template, 37° C. for 20–40 minutes; for primer extended by at least one base within assay time (grade): TTP replaced entirely by test compound
# T2 construct: purchased AP Biotech
# Method: as §1, §2, §3
# (§4) Extension reactions preformed with mesophilic polymerases were carried out by mixing all the components of the reaction except the enzyme and heating to 70° C. for 5 min. After the reactions had cooled to room temperature 0.175 units of the enzyme were added and the reactions heated to 37° C. for 20–40 minutes. The following enzymes were used: T7 DNA polymerase (T7); Sequenase 2™ (Seq); Klenow fragment of DNA polymerase 1 (Klen); phi-29 DNA polymerase (Phi-29); T4 DNA polymerase (T4) (all from AP Biotech) and Bst DNA polymerase (Bst) (Cambio Ltd).
# (§5) The reactions were stopped by adding a 0.5 volume aliquot of 80% formamide containing 0.1% (w/v) bromophenol blue and 0.1% (w/v) cresol blue. The reaction products were separated by denaturing gel electrophoresis at a constant power of 45 W on 16% polyacrylamide gels containing 50% urea.
# (§6) Gels were scanned for Cy3 fluorescence on a Molecular Dynamics Fluorimager and the data analysed using Molecular Dynamics ImageQuant 5 software.
# (§7) The incorporation of a test nucleotide triphosphate results in the appearance on a polyacrylamide gel of a single band corresponding to a single base extension product. If, however, the enzyme adds additional bases then further bands would be observed that corresponded to either the full-length product or positions of other complementary bases in the template.
# [3] = target: T3, Sequenase 2™ (Escherichia phage T7, UniProt P00581, DEL118-145); assay: Mesophilic DNA polymerase primer extension, Seq; parameters: key to result of incorporation (termination / further chain extension): T: Incorporation results in termination; E: Incorporation permits further chain extension; T/E: Predominant product is primer extended by one base, but evidence of some further extension also observed; conditions: DNA template, 37° C. for 20–40 minutes; for primer extended by at least one base within assay time (grade): TTP replaced entirely by test compound
# T3 construct: purchased AP Biotech
# Method: DNA polymerase assays were performed using Sequence 1 as primer and Sequence 2 as template. • Sequence 1 5′[Cy3][…] 3′ • Sequence 2 5′AT […]3′
# as §2, §3, §4, §5, §6, §7
# T3 sequence (P0AA25 2-109, stated change not applied): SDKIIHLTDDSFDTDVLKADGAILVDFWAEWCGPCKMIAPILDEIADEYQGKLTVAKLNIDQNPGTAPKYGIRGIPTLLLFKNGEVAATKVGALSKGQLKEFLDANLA
# T3 sequence (P00581 other isoform, or with tags, fused parts or gaps DEL118-145): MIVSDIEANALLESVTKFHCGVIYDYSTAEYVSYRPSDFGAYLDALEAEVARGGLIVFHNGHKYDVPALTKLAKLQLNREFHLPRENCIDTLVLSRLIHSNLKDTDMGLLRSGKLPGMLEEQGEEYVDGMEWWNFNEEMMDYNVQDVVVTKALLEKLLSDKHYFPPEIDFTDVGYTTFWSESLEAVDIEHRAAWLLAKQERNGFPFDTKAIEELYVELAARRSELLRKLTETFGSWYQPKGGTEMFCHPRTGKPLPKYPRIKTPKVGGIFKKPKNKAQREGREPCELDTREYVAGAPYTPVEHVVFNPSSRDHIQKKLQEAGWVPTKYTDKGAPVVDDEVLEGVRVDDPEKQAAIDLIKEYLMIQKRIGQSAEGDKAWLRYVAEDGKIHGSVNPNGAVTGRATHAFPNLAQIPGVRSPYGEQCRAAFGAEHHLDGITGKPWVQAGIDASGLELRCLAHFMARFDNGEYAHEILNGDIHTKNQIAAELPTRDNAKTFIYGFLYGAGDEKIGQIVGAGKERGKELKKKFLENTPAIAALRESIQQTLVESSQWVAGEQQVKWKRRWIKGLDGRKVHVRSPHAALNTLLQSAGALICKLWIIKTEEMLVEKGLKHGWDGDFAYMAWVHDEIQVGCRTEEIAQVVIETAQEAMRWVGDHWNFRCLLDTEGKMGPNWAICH
# T2 sequence (P03680 whole entry): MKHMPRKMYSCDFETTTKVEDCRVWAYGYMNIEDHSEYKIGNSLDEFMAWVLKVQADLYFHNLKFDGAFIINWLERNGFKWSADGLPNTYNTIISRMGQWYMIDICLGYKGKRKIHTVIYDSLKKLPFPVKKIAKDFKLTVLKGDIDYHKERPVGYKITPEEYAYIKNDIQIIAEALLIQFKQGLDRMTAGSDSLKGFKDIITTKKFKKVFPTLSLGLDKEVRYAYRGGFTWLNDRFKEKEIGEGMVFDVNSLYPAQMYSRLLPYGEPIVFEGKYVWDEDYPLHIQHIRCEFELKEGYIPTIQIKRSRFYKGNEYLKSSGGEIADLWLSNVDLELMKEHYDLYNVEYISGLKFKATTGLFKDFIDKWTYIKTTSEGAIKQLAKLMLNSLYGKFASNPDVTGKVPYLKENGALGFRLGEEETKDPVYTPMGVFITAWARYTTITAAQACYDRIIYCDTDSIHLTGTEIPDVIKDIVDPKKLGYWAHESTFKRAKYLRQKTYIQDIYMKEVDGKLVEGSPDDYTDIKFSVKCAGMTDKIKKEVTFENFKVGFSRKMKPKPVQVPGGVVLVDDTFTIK
Molecule,primer extended by at least one base within assay time (grade) [1],result of incorporation (termination / further chain extension) [2],primer extended by at least one base within assay time (grade) [2],result of incorporation (termination / further chain extension) [3],primer extended by at least one base within assay time (grade) [3]
4′-C-(Aminomethyl)thymidine triphosphate [compound (9)],−,T,+/− (up to 25% of primer extended by at least one base within assay time),T,+ (up to 50% of primer extended by at least one base within assay time)
"Cc1cn([C@H]2C[C@H](O)[C@@](CNC(=O)C(F)(F)F)(COP(=O)(O)OP(=O)(O)OP(=O)(O)O)O2)c(=O)[nH]c1=O [compound (8), 4′-C-(N-trifluoroacetylaminomethyl)thymidine triphosphate]",−,T,+/− (up to 25% of primer extended by at least one base within assay time),T,+ (up to 50% of primer extended by at least one base within assay time)
4′-C-(Glycylaminomethyl)thymidine triphosphate [compound (6)],−,T,+/− (up to 25% of primer extended by at least one base within assay time),T,+ (up to 50% of primer extended by at least one base within assay time)
